The record followed here is ChEMBL document CHEMBL1137940, “Discovery of thiophene-2-carboxylic acids as potent inhibitors of HCV NS5B polymerase and HCV subgenomic RNA replication. Part 2: tertiary amides” (Bioorg Med Chem Lett, 2004).

One may read the IC50 as the concentration that gives 50% inhibition. Read a low IC50 as higher potency. By CC50 is commonly meant the concentration giving 50% cytotoxicity. A high value points to lower toxicity to the cells.

Experiment [1] addresses Genome polyprotein (Hepatitis C virus genotype 1a (isolate 1) (HCV), UniProt P26664). The experiment in a line: In vitro inhibition of Hepatitis C polymerase.
Experiment [2] deals with Huh-7. The experiment is described as follows: Tested for cytotoxic effect to Huh-7 cells containing HCV RNA subgenomic replicons. It counts as functional. The settings on record: Homo sapiens. On the technique in general: Replicon systems follow genome replication, usually without infectious particles.
Experiment [3] deals with Huh-7. The experiment is described as follows: Tested for inhibition of replication of HCV RNA subgenomic replicons in Huh-7 cells by replicon assay. The format is functional, cell-based, Homo sapiens.
Experiment [4] has as its system Huh-7. The experiment is described as follows: Tested for inhibition of replication of HCV RNA subgenomic replicons in Huh-7 cells by real time PCR. It counts as functional, cell-based. The settings on record: Homo sapiens.

Chain of Genome polyprotein (P26664 2421-3011 limits assumed): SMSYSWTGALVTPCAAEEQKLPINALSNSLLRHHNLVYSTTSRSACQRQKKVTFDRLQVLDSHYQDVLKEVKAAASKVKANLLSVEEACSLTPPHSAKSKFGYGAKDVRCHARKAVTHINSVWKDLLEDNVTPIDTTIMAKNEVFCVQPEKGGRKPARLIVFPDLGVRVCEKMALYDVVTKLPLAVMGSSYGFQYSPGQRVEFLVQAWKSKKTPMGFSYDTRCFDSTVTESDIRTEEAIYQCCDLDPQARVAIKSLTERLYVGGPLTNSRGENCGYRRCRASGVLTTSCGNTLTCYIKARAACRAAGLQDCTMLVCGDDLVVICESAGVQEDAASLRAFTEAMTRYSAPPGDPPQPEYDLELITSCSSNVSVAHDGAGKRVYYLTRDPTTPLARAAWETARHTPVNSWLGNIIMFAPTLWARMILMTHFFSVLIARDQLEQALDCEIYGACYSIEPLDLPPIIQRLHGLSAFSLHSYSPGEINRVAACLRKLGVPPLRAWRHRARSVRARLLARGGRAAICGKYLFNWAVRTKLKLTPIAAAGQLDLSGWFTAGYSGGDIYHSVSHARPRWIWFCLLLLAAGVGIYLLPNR

In turn, `Cc1ccc(C(=O)N(C)c2cc(-c3ccccc3)sc2C(=O)O)cc1C` returned an IC50 in experiment [1] of more than 50 µM.
In the case of `Cc1ccc(S(=O)(=O)N(C)c2cc(-c3ccccc3)sc2C(=O)O)c(C)c1`, the IC50 in experiment [1] is 5 µM; in experiment [3] (Homo sapiens, Huh-7), 35 µM. Besides, in experiment [2], the CC50 was determined as 115 µM.
The like results for `Cc1ccc(C(=O)N(C)c2cc(-c3ccccc3)sc2C(=O)O)c(C)c1` were, in that order, 1.4 µM, 16 µM and 160 µM.
In turn, `Cc1ccc(S(=O)(=O)Nc2cc(-c3ccccc3)sc2C(=O)O)c(C)c1` returned a CC50 in experiment [2] of 57 µM. In addition, the concentration for half-maximal inhibition (IC50) in experiment [3] (Homo sapiens, Huh-7) worked out at 5 µM.
Take `Cc1cccc(C(=O)N(C)c2cc(-c3ccccc3)sc2C(=O)O)c1`: the IC50 in experiment [1] is more than 50 µM; in experiment [3] (Homo sapiens, Huh-7), more than 100 µM. Further, the CC50 in experiment [2] is more than 200 µM.
On to `Cc1ccccc1C(=O)N(C)c1cc(-c2ccccc2)sc1C(=O)O`, for which the half-maximal inhibitory concentration (IC50) in experiment [1] turned out to be 21 µM.
Still for that read-out and setting: in the case of `CN(C(=O)c1ccccc1)c1cc(-c2ccccc2)sc1C(=O)O` it was more than 32 µM.
Take `Cc1ccc(C(=O)N(c2cc(-c3ccccc3)sc2C(=O)O)C(C)C)cc1`: the IC50 in experiment [1] was 3 µM; in experiment [3] (Homo sapiens, Huh-7), 5 µM. In experiment [2], the CC50 was more than 200 µM.
The molecule `Cc1ccc(C(=O)Nc2cc(-c3ccccc3)sc2C(=O)O)cc1` returned a CC50 in experiment [2] of 118 µM. The IC50 in experiment [3] (Homo sapiens, Huh-7) is more than 100 µM.
For `CN(C(=O)c1ccc(C(F)(F)F)cc1)c1cc(-c2ccccc2)sc1C(=O)O`, the IC50 is 34 µM in experiment [1] and more than 50 µM in experiment [3] (Homo sapiens, Huh-7).
As to `CC(C)N(C(=O)C1CCCCC1)c1cc(-c2ccccc2)sc1C(=O)O`, the IC50 in experiment [1] turned out to be 9 µM; in experiment [3] (Homo sapiens, Huh-7), 15 µM. Also, in experiment [2], the CC50 was 69 µM.
Turning to `CCN(C(=O)c1ccc(C)cc1)c1cc(-c2ccccc2)sc1C(=O)O`, the half-maximal inhibitory concentration (IC50) is 2 µM in experiment [1] and 12 µM in experiment [3] (Homo sapiens, Huh-7). Further, in experiment [2], the CC50 is 100 µM.
On to `CC(C)N(C(=O)c1ccc(Cl)cc1Cl)c1cc(-c2ccccc2)sc1C(=O)O`, for which the IC50 in experiment [1] is 1.2 µM; in experiment [3] (Homo sapiens, Huh-7), 8.9 µM. The molecule further registered a CC50 in experiment [2] of 62 µM.
With `CCc1ccc(C(=O)N(C)c2cc(-c3ccccc3)sc2C(=O)O)cc1`, the IC50 in experiment [1] was more than 50 µM; in experiment [3] (Homo sapiens, Huh-7), more than 100 µM.
Take `CN(C(=O)c1ccc(Cl)cc1)c1cc(-c2ccccc2)sc1C(=O)O`: the 50% inhibitory concentration (IC50) in experiment [1] was 1.2 µM; in experiment [3] (Homo sapiens, Huh-7) it was 19 µM. This molecule also registered a CC50 in experiment [2] of 88 µM.
The like results for `Cc1ccc(C(=O)N(C)c2cc(-c3ccccc3)sc2C(=O)O)cc1` were, in that order, 2 µM, 22 µM and more than 200 µM.
With `CC1CCC(C(=O)N(c2cc(-c3ccccc3)sc2C(=O)O)C(C)C)CC1` (stereo in doubt; 16), the IC50 in experiment [1] stood at 1.5 µM; in experiment [4], 300 nM; in experiment [3] (huh-7), 0.6 µM. In experiment [2], this molecule came in with a CC50 of 123 µM.
`CC1CCC(C(=O)N(c2cc(-c3ccccc3)sc2C(=O)O)C(C)C)CC1` (stereo in doubt; 17): the results for the IC50 in experiment [1] and in experiment [3] (huh-7) were 24 µM and more than 50 µM, respectively.
